The values below are quoted from earlier work in patent publication US9089619B2, “Hybrid nanocrystals for treatment and bioimaging of disease” (University of Kentucky, priority 2005, dated 2015).

The conditions of the data set: water at 25° C.

In the case of `Nc1nc2ncc(CNc3ccc(C(=O)N[C@@H](CCC(=O)O)C(=O)O)cc3)nc2c(=O)[nH]1` [Folic acid], the solubility in water entry was “about 1.6 μg/ml”.
